Each structure is given as a SMILES string.

Here are results for eleven compounds from PMC6100259, “Insights into Structure-Activity Relationships of 3-Arylhydrazonoindolin-2-One Derivatives for Their Multitarget Activity on β-Amyloid Aggregation and Neurotoxicity” (Molecules : A Journal of Synthetic Chemistry and Natural …, 2018).

In this assay the target is T1, Aβ40 peptide (Homo sapiens, UniProt P05067).
T1 construct: we preferred using Aβ40 peptide
Kind of assay: Inhibition of Aβ40 aggregation, ThT fluorescence-based method. The class given is biochemical. As to conditions: for inhibition at 100 µM: Aβ40, compound 100 µM, ThT fluorescence, 2% HFIP, PBS, 2 h at 25 °C, mean ± SEM of three independent experiments, read-out: % Inhibition @ 100 µM, Aβ antiaggregating activity; for Aβ aggregation inhibition, result in words: Aβ40, ThT assay. The protocol:
In vitro inhibition of Aβ aggregation was assessed through a ThT fluorescence-based method, with the use of 2% 1,1,1,3,3,3-hexafluoroisopropanol (HFIP) as aggregation enhancer. In this medium-throughput assay, we preferred using Aβ40 peptide, being more manageable than Aβ42 and less prone to the formation of preaggregates. Samples of Aβ were co-incubated with test molecules in PBS at 100 µM concentration and the antiaggregating activities were measured after 2 h of incubation at 25 °C. For compounds showing >80% Aβ40 aggregation inhibition, IC50s were determined.
The spectrofluorimetric assays, measuring ThT fluorescence in the presence of Aβ, were done as previously described. Briefly, coincubation samples were prepared as described above (Section 2.2 and Section 2.3) in 96-well black, non-binding microplates (Greiner Bio-One GmbH, Frickenhausen, Germany). Fluorimetric reads were performed in a multiplate reader Infinite M1000 Pro (Tecan, Cernusco sul Naviglio, Italy). Each concentration point was run in triplicate. CD ellipticity measures were performed as detailed in ref. [20], following the increase of the negative band at 215 nm as indicative of β-sheet arrangement.

T1 sequence (P05067 672-711 limits assumed): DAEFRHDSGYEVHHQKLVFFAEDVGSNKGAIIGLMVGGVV

On to `COc1ccc2c(c1)/C(=N/Nc1ccc(C#N)cc1)C(=O)N2` [Compound 4, (Z)-4-(2-(5-Methoxy-2-oxoindolin-3-ylidene)hydrazinyl)benzonitrile], for which the inhibition (in general, the share of the control response that was lost under treatment) at 100 µM came out at 16%.
In the case of `CCCCc1ccc2c(c1)C(=NNc1ccc(C(C)C)cc1)C(=O)N2` [Compound 36, 5-Butyl-3-(2-(4-isopropylphenyl)hydrazono)indolin-2-one], the inhibition at 100 µM came out at 55 ± 1%.
As to `COc1ccc2c(c1)/C(=N/Nc1ccnc3cc(Cl)ccc13)C(=O)N2` [Compound 11, (Z)-3-(2-(7-Chloroquinolin-4-yl)hydrazono)-5-methoxy-indolin-2-one], the “Aβ aggregation inhibition, result in words” value (“Aβ aggregation inhibition” below) is given as “very weak inhibitor” and the inhibition at 100 µM stood at 14%.
The like results for `COc1ccc2c(c1)/C(=N/Nc1nc(C)c(C)s1)C(=O)N2` [Compound 14, (Z)-3-(2-(4,5-Dimethylthiazol-2-yl)hydrazono)-5-methoxyindolin-2-one] were, in that order, “very weak inhibitor” and 43%.
With `CC(C)c1ccc(N/N=C2\C(=O)Nc3cc4c(cc32)OCO4)cc1` [Compound 39, (Z)-7-(2-(4-isopropylphenyl)hydrazono)-5H-[1,3]dioxolo[4,5-f]indol-6(7H)-one], the inhibition at 100 µM worked out at 70 ± 4%.
Take `COc1ccc2c(c1)/C(=N/Nc1ccc3ccccc3n1)C(=O)N2` [Compound 9, (Z)-5-Methoxy-3-(2-(quinolin-2-yl)hydrazono)indolin-2-one]: the inhibition at 100 µM stood at 67%.
For the compound `COc1ccc2c(c1)/C(=N/Nc1cccc3cccnc13)C(=O)N2` [Compound 10, (Z)-5-Methoxy-3-(2-(quinolin-8-yl)hydrazono)indolin-2-one], the inhibition at 100 µM stood at 58%.
Regarding `CC(C)c1ccc(NN=C2C(=O)Nc3c(Br)cccc32)cc1` [Compound 37, 7-Bromo-3-(2-(4-isopropylphenyl)hydrazono)indolin-2-one], the “Aβ aggregation inhibition” value is on record as “complete loss of activity” and the inhibition at 100 µM is under 5%.
With `CC(C)c1ccc(NN=C2C(=O)Nc3ccc(S(=O)(=O)O)cc32)cc1` [Compound 38, Sodium 3-(2-(4-isopropylphenyl)hydrazono)-2-oxoindolin-5-sulfonate], the inhibition at 100 µM worked out at 35 ± 4%.
With `COc1ccc2c(c1)C(=NNC(=O)c1cccc(Cl)c1)C(=O)N2` [Compound 23, 3-Chloro-N’-(5-methoxy-2-oxoindolin-3-ylidene)benzohydrazide], the “Aβ aggregation inhibition” value was “sharp drop of activity” and the inhibition at 100 µM was 31%.
Turning to `COc1ccc2c(c1)/C(=N/Nc1ccc(C(F)(F)F)cc1)C(=O)N2` [Compound 5, (Z)-5-Methoxy-3-(2-(4-(trifluoromethyl)phenyl)hydrazono)indolin-2-one], the inhibition at 100 µM was 57%.
